Columns and labels:
BCL6 BTB domain = BCL6 BTB domain (Homo sapiens (Human), UniProt P41182); test: Surface plasmon resonance (SPR) assay; format: binding; details: BCL6 BTB domain captured on SA chip, single cycle kinetics
[1] = system: BCL6 reporter construct (3xBCL6-TK-Luc) in SuDHL4 cells; test: Cell-based luciferase assay; details: Homo sapiens, SU-DHL-4, 48 h, read-out: Luciferase-Assay EC50, uM), SuDHL4-3xBCL6-TK-Luc cells, two days, high dose 10 uM
Summary of the method: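 SuDHL4 cells stably carrying a 3×BCL6-site TK-promoter firefly luciferase reporter, seeded at 15,000 cells/well, were dosed over a 10-point range (top 10 uM) and grown two days at 37 °C, 5% CO2. Luminescence then read after adding neolite reagent at room temperature.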

Karpas422 cells = test: Tumor cell growth inhibition assay; format: cell-based; details: Homo sapiens, KARPAS-422, 144 h, read-out: Tumor Growth Inhibition in Karpas-422 (IC50, uM), Karpas422 cells, six days, ATPlite
Summary of the method: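 Growth inhibition was measured by ATPlite luminescence after six days of culture at 37° C. in 5% CO2. Karpas422 cells were seeded at 2,000 per well in Alpha-MEM plus 10% FBS. Compounds were given as a 10-point concentration series with a highest dose of 5 uM.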

Row | Compound | Kd (BCL6 BTB domain) [nM] | EC50 [1] [µM] | IC50 (Karpas422 cells) [µM]
1 | C[C@H]1CNCCN1c1cc(NC(=O)Cn2cc(-c3cc(C(N)=O)c(O)c(F)c3F)c3c(=O)n(C)cnc32)c(Cl)cn1 [Compound I-335] | 24.6 | 6.92 | 5.1
2 | CC1CN(C)CC(C)N1c1cc(NC(=O)Cn2cc(-c3cc(Cl)c(O)c(C(N)=O)c3)c3c(=O)n(C)cnc32)c(Cl)cn1 (stereo not drawn) [Compound I-340] | 11.6 | 0.0724 | 0.0759
3 | C[C@H]1CNCCN1c1cc(NC(=O)Cn2cc(-c3cc(Cl)c(O)c(C(N)=O)c3)c3c(=O)n(C)cnc32)c(Cl)cn1 [Compound I-342] | 11.3 | 0.312 | 0.27
4 | C[C@H]1CN(CC2CC2)CCN1c1cc(NC(=O)Cn2cc(-c3cc(Cl)c(O)c(C(N)=O)c3)c3c(=O)n(C)c(C(F)(F)F)nc32)c(Cl)cn1 [Compound I-343] | 180 | 0.641 | 0.383
5 | Cc1nc2c(c(-c3cc(C(N)=O)c(O)c(F)c3F)cn2CC(=O)Nc2cc(N3CCN(C4COC4)C[C@@H]3C)ncc2Cl)c(=O)n1C [Compound I-344] | 13.8 | 0.317 | 0.701
6 | C[C@H]1CN(C2COC2)CCN1c1cc(NC(=O)Cn2cc(-c3cc(Cl)c(O)c(C(N)=O)c3)c3c(=O)n(C)cnc32)c(Cl)cn1 [Compound I-345] | 6.15 | 0.0927 | 0.166
7 | CN(C)C1CN(c2cc(NC(=O)Cn3cc(-c4cc(Cl)c(O)c(C(N)=O)c4)c4c(=O)n(C)cnc43)c(Cl)cn2)C1 [Compound I-347] | 57.4 | 0.603 | 0.454
8 | CN1CC2CCC(C1)N2c1cc(NC(=O)Cn2cc(-c3cc(Cl)c(O)c(C(N)=O)c3)c3c(=O)n(C)cnc32)c(Cl)cn1 [Compound I-348] | 13.4 | 0.479 | 0.15
9 | C[C@H]1CNCCN1c1cc(NC(=O)Cn2cc(-c3cc(C(N)=O)c(O)c4c3OCO4)c3c(=O)n(C)cnc32)c(Cl)c(F)n1 [Compound I-349] | 3.29 | 0.131 | 0.0873
10 | Cn1cnc2c(c(-c3cc(Cl)c(O)c(C(N)=O)c3)cn2CC(=O)Nc2cc(N3CCOC4(CCC4)C3)ncc2Cl)c1=O [Compound I-350] | 63.9 | 0.486 | 0.897
11 | Cn1cnc2c(c(-c3cc(Cl)c(O)c(C(N)=O)c3)cn2CC(=O)Nc2cc(N3CC4(CCOC4)C3)ncc2Cl)c1=O [Compound I-351] | 40.1 | 0.591 | 1.2
12 | CN1CCN(c2cc(NC(=O)Cn3cc(-c4cc(Cl)c(O)c(C(N)=O)c4)c4c(=O)n(C)cnc43)c(Cl)cn2)C(C)(C)C1 [Compound I-352] | 59.7 | 0.79 | 0.346
13 | C[C@@H]1CN(c2cc(NC(=O)Cn3cc(-c4cc(C(N)=O)c(O)c(F)c4F)c4c(=O)n(C)cnc43)c(Cl)cn2)C[C@H](C)N1C [Compound I-353] | 75 | 1.35 | 0.648
14 | CO[C@@H]1CCN(c2cc(NC(=O)Cn3cc(-c4cc(C(N)=O)c(O)c(F)c4F)c4c(=O)n(C)cnc43)c(Cl)cn2)C1 [Compound I-354] | 54.8 | 1.02 | 1.27
15 | CCN1CCN(c2cc(NC(=O)Cn3cc(-c4cc(C(N)=O)c(O)c5c4OCO5)c4c(=O)n(C)cnc43)c(Cl)c(F)n2)[C@@H](C)C1 [Compound I-357] | 1.86 | 0.0322 | 0.0288
16 | C[C@H]1CN(C2CCC2)CCN1c1cc(NC(=O)Cn2cc(-c3cc(Cl)c(O)c(C(N)=O)c3)c3c(=O)n(C)cnc32)c(Cl)cn1 [Compound I-358] | 22.7 | 0.256 | 0.341
17 | C[C@H]1CN(C2CCC2)CCN1c1cc(NC(=O)Cn2cc(-c3cc(C(N)=O)c(O)c(F)c3F)c3c(=O)n(C)cnc32)c(Cl)cn1 [Compound I-359] | 42.2 | 0.521 | 1.34
18 | CC(C)[C@H]1CN(C)CCN1c1cc(NC(=O)Cn2cc(-c3cc(Cl)c(O)c(C(N)=O)c3)c3c(=O)n(C)cnc32)c(Cl)cn1 [Compound I-360] | 30.9 | 0.659 | 0.778
19 | CC(C)[C@H]1CN(C)CCN1c1cc(NC(=O)Cn2cc(-c3cc(C(N)=O)c(O)c(F)c3F)c3c(=O)n(C)cnc32)c(Cl)cn1 [Compound I-361] | 70.8 | 1.33 | 1.37
20 | Cn1cnc2c(c(-c3cc(Cl)c(O)c(C(N)=O)c3)cn2CC(=O)Nc2cc(N3CC4CC3CN4CC(F)(F)F)ncc2Cl)c1=O (stereo not drawn) [Compound I-362] | 38 | 0.226 | 0.337
21 | Cn1cnc2c(c(-c3cc(C(N)=O)c(O)c(F)c3F)cn2CC(=O)Nc2cc(N3CC4CC3CN4CC(F)(F)F)ncc2Cl)c1=O (stereo not drawn) [Compound I-363] | 59.3 | 0.931 | 1.19

Row | Compound | Kd (BCL6 BTB domain) [nM] | EC50 [1] [µM] | IC50 (Karpas422 cells) [µM]
22 | CO[C@H]1CN(c2cc(NC(=O)Cn3cc(-c4cc(C(N)=O)c(O)c(F)c4F)c4c(=O)n(C)cnc43)c(Cl)cn2)C[C@H]1F [Compound I-364] | 25 | 0.819 | 1.04
23 | CO[C@@H]1CN(c2cc(NC(=O)Cn3cc(-c4cc(Cl)c(O)c(C(N)=O)c4)c4c(=O)n(C)cnc43)c(Cl)cn2)C[C@@H]1F [Compound I-365] | 17.4 | 0.281 | 0.462
24 | CO[C@@H]1CN(c2cc(NC(=O)Cn3cc(-c4cc(C(N)=O)c(O)c(F)c4F)c4c(=O)n(C)cnc43)c(Cl)cn2)C[C@@H]1F [Compound I-366] | 35.2 | 0.899 | 0.978
25 | CN1CC2CC1CN2c1cc(NC(=O)Cn2cc(-c3cc(Cl)c(O)c(C(N)=O)c3)c3c(=O)n(C)cnc32)c(Cl)cn1 (stereo not drawn) [Compound I-367] | 41.9 | 5.3 | 3.49
26 | C[C@H]1CN(C)CCN1c1cc(NC(=O)Cn2cc(-c3cc(Cl)c(O)c(C(N)=O)c3)c3c(=O)n(C)c(C(F)(F)F)nc32)c(Cl)c(F)n1 [Compound I-368] | 83.5 | 0.369 | 0.407
27 | CN1C(C)(C)CN(c2cc(NC(=O)Cn3cc(-c4cc(C(N)=O)c(O)c(F)c4F)c4c(=O)n(C)cnc43)c(Cl)cn2)CC1(C)C [Compound I-369] | 159 | 2.2 | 2.8
28 | C[C@H]1CN(C2COC2)CCN1c1cc(NC(=O)Cn2cc(-c3cc(Cl)c(O)c(C(N)=O)c3)c3c(=O)n(C)c(C(F)(F)F)nc32)c(Cl)cn1 [Compound I-371] | 39.5 | 0.141 | 0.288
29 | C[C@H]1CN(C2COC2)CCN1c1cc(NC(=O)Cn2cc(-c3cc(F)c(O)c(C(N)=O)c3)c3c(=O)n(C)cnc32)c(Cl)cn1 [Compound I-372] | 7.41 | 0.233 | 0.267
30 | Cc1nc2c(c(-c3cc(Cl)c(O)c(C(N)=O)c3)cn2CC(=O)Nc2cc(N3CCN(C)C[C@@H]3C)nc(F)c2Cl)c(=O)n1C [Compound I-373] | 5.96 | 0.0803 | 0.105
31 | COCCN1CCN(c2cc(NC(=O)Cn3cc(-c4cc(C(N)=O)c(O)c5c4OCO5)c4c(=O)n(C)cnc43)c(Cl)c(F)n2)[C@@H](C)C1 [Compound I-375] | 1.31 | 0.0114 | 0.0256
32 | CCN1CCN(c2cc(NC(=O)Cn3cc(-c4cc(Cl)c(O)c(C(N)=O)c4)c4c(=O)n(C)c(C(F)(F)F)nc43)c(Cl)cn2)[C@@H](C)C1 [Compound I-376] | 73.4 | 0.385 | 0.366
33 | C[C@H]1CN(CC2(C(F)(F)F)CC2)CCN1c1cc(NC(=O)Cn2cc(-c3cc(C(N)=O)c(O)c(F)c3F)c3c(=O)n(C)cnc32)c(Cl)cn1 [Compound I-377] | 208 | 2.97 | 8.61
34 | Cc1nc2c(c(-c3cc(C(N)=O)c(O)c(F)c3F)cn2CC(=O)Nc2cc(N3CCN(C)C[C@@H]3C(C)C)ncc2Cl)c(=O)n1C [Compound I-378] | 118 | 0.944 | 1.22
35 | Cc1nc2c(c(-c3cc(C(N)=O)c(O)c(F)c3F)cn2CC(=O)Nc2cc(N3CCN(C4CC4)C[C@@H]3C)ncc2Cl)c(=O)n1C [Compound I-379] | 68.6 | 0.664 | 0.853
36 | Cc1nc2c(c(-c3cc(C(N)=O)c(O)c(F)c3F)cn2CC(=O)Nc2cc(N3CCN(C(C)C)C[C@@H]3C)ncc2Cl)c(=O)n1C [Compound I-380] | 56 | 0.59 | 0.478
37 | COc1ncc(Cl)c(NC(=O)Cn2cc(-c3cc(C(N)=O)c(O)c(F)c3F)c3c(=O)n(C)c(C)nc32)c1F [Compound I-381] | 240 | 10 | 10
38 | COc1ncc(Cl)c(NC(=O)Cn2cc(-c3cc(Cl)c(O)c(C(N)=O)c3)c3c(=O)n(C)c(C)nc32)c1F [Compound I-382] | 342 | 3.1 | 10
39 | Cn1cnc2c(c(-c3cc(Cl)c(O)c(C(N)=O)c3)cn2CC(=O)Nc2ccc(F)cc2Cl)c1=O [Compound I-383] | 460 | 2.44 | 1.05
40 | Cn1cnc2c(c(-c3cc(Cl)c(O)c(C(N)=O)c3)cn2CC(=O)Nc2ccc(C#N)cc2Cl)c1=O [Compound I-384] | 115 | 1.18 | 0.8
41 | Cn1cnc2c(c(-c3cc(Cl)c(O)c(C(N)=O)c3)cn2CC(=O)Nc2ccc([N+](=O)[O-])cc2Cl)c1=O [Compound I-385] | 38.4 | 0.312 | 0.335
42 | CO[C@@H]1CN(c2cc(NC(=O)Cn3cc(-c4cc(Cl)c(O)c(C(N)=O)c4)c4c(=O)n(C)c(C(F)(F)F)nc43)c(Cl)cn2)C[C@@H]1F [Compound I-386] | 153 | 1.01 | 0.772
